Structures are written as SMILES.

One experiment deals with T1, AGO2-MID domain (Homo sapiens, UniProt Q9UKV8).
T1 construct: mixed with an equal amount of a 5 μg/mL AGO2-MID domain solution
The experiment in a line: Biacore competition experiment of nucleotide (monomer) for the AGO2-MID domain (Test Examples 7 and 8). It is filed as binding. As to conditions: Test Example 7; 2.5 μg/mL AGO2-MID domain solution containing the monomer at 100 μM; read-out: inhibition rate (%) (100 μM AGO2-MID domain solutions). The method, then:
HBS-EP+ 10× was diluted to 10-fold with pure water, and DTT was added thereto to give a final concentration of 2 mM, followed by filtration through a filter to prepare an HBS-EP+ 2 mM DTT aqueous solution. To this solution, dimethyl sulfoxide (DMSO) was added to give a final concentration of 1%, whereby a running buffer was prepared.
A monomer solution dissolved in DMSO or distilled water was diluted to 200 μM, 40 μM, 8 μM, and 1.6 μM/(2% DMSO, HBS-EP+, 2 mM DTT), and each of the diluted solutions was mixed with an equal amount of a 5 μg/mL AGO2-MID domain solution diluted with the HBS-EP+2 mM DTT solution, whereby 2.5 μg/mL AGO2-MID domain solutions containing the monomer at 100 μM, 20 μM, 4 μM, and 0.8 μM, respectively, were prepared as the HBS-EP+, 2 mM DTT, 1% DMSO solution.
A competition experiment by the siRNA was performed using a chip immobilized dT(16)-Biotin oligo thereon in the same manner as in Test Example 6. The flow rate is set to 30 μL/minute throughout the experiment, and one cycle is performed as follows: binding for 60 seconds, dissociation for 5 seconds, and regeneration 1 M NaCl for 5 seconds.
In order to stabilize the machine, the first 10 cycles are performed by adding only HBS-EP+, and thereafter, the measurement is performed for each monomer in the order of HBS-EP+(BLANK), a 2.5 μg/mL AGO2-MID domain solution (CONTROL), and 2.5 μg/mL AGO2-MID domain solutions (Sample) containing the monomer at 100 μM, 20 μM, 4 μM, and 0.8 μM, respectively, and a 2.5 μg/mL AGO2-MID domain solution (CONTROL). In the analysis, the binding level of the graph obtained by subtracting the graph for blank immobilization from the graph for the immobilized cell is used, and the residual binding ratio (%) is calculated according to ([Sample]−[BLANK])/([CONTROL]−[BLANK])×100, and the inhibition ratio (%) is calculated according to 100−(residual binding ratio).
In Table 36, the inhibition ratios (%) of 8-Br-dA (Compound I-1) and 5-fluoro-2′-deoxyuridine monophosphate (Compound I-4), and for comparison thereof, the inhibition ratios (%) of adenosine monophosphate (AMP) and uridine monophosphate (UMP) are shown.
(In general: SPR reads the build-up and loss of mass on a sensor chip optically.)
Consider `Nc1ncnc2c1nc(Br)n2[C@H]1C[C@H](O)[C@@H](COP(=O)(O)O)O1` [compound I-1, 8-bromo-2′-deoxyadenosine monophosphate], for which the inhibition (in general, the percentage by which the read-out fell short of the control) at 100 µM is 68.6%.
Take `O=c1[nH]c(=O)n([C@H]2C[C@H](O)[C@@H](COP(=O)(O)O)O2)cc1F` [compound I-4, 5-fluoro-2′-deoxyuridine monophosphate]: the inhibition at 100 µM was found to be 42.7%.
On the same count and under the same terms, for `O=c1ccn([C@@H]2O[C@H](COP(=O)(O)O)[C@@H](O)[C@H]2O)c(=O)[nH]1` [UMP, uridine monophosphate, reference compound] the value was 35.9%.

The same experiment, now with this note: Test Example 8; 2.5 μg/mL AGO2-MID domain solution containing the monomer at 100 μM; read-out: inhibition rate (%) (100 μM AGO2-MID domain solutions).
For `Cc1cn([C@@H]2O[C@H](COP(=O)(O)O)[C@@H](O)[C@H]2O)c(=O)[nH]c1=O` [compound I-33, ((2R,3S,4R,5R)-3,4-Dihydroxy-5-(5-methyl-2,4-dioxo-3,4-dihydropyrimidin-1(2H)-yl)tetrahydrofuran-2-yl)methyl phosphate], the inhibition at 100 µM came out at 82.9%.
On the same count and under the same terms, for `O=Cc1cccc(-c2ncnc3c2ncn3[C@@H]2O[C@H](COP(=O)(O)O)[C@@H](O)[C@H]2O)c1` [compound I-22, ((2R,3S,4R,5R)-3,4-Dihydroxy-5-(6-(3-formylphenyl)-9H-purin-9-yl)tetrahydrofuran-2-yl)methyl phosphate] the value was 91.6%; for `CN(C)c1cc2c(cc1[N+](=O)[O-])c(=O)[nH]c(=O)n2[C@@H]1O[C@H](COP(=O)(O)O)[C@@H](O)[C@H]1O` [compound I-36, ((2R,3S,4R,5R)-5-(7-(Dimethylamino)-6-nitro-2,4-dioxo-3,4-dihydroquinazolin-1(2H)-yl)-3,4-dihydroxytetrahydrofuran-2-yl)methyl phosphate], 91.6%; for `O=c1[nH]c(=O)n([C@@H]2O[C@H](COP(=O)(O)O)[C@@H](O)[C@H]2O)cc1-c1ccccn1` [compound I-14, ((2R,3S,4R,5R)-5-(2,4-Dioxo-5-(pyridin-2-yl)-3,4-dihydropyrimidin-1 (2H)-yl)-3,4-dihydroxytetrahydrofuran-2-yl)methyl phosphate], 63.3%.
Turning to `O=c1[nH]c(=O)n([C@@H]2O[C@H](COP(=O)(O)O)[C@@H](O)[C@H]2O)c2ccc([N+](=O)[O-])cc12` [compound I-23, ((2R,3S,4R,5R)-3,4-Dihydroxy-5-(6-nitro-2,4-dioxo-3,4-dihydroquinazolin-1(2H)-yl)tetrahydrofuran-2-yl)methyl phosphate], the inhibition at 100 µM amounted to 85.2%.
As for `O=c1[nH]c(=O)n([C@@H]2O[C@H](COP(=O)(O)O)[C@@H](O)[C@H]2O)c2cc(Cl)c([N+](=O)[O-])cc12` [compound I-35, ((2R,3S,4R,5R)-5-(7-Chloro-6-nitro-2,4-dioxo-3,4-dihydroquinazolin-1(2H)-yl)-3,4-dihydroxytetrahydrofuran-2-yl)methyl phosphate], the inhibition at 100 µM worked out at 88%.
Consider `O=P(O)(O)OC[C@H]1O[C@@H](n2cnc3c(/C=C/c4cccc(Cl)c4)ncnc32)[C@H](O)[C@@H]1O` [compound I-38, ((2R,3S,4R,5R)-5-(6-(3-Chlorostyryl)-9H-purin-9-yl)-3,4-dihydroxytetrahydrofuran-2-yl)methyl phosphate], for which the inhibition at 100 µM was 78.9%.
For the compound `Cc1c(C#N)n([C@@H]2O[C@H](COP(=O)(O)O)[C@@H](O)[C@H]2O)c(=O)[nH]c1=O` [compound I-24, ((2R,3S,4R,5R)-5-(6-cyano-5-methyl-2,4-dioxo-3,4-dihydropyrimidin-1 (2H)-yl)-3,4-dihydroxytetrahydrofuran-2-yl)methyl phosphate], the inhibition at 100 µM worked out at 88.4%.
For the compound `Nc1cccc(-c2ncnc3c2ncn3[C@@H]2O[C@H](COP(=O)(O)O)[C@@H](O)[C@H]2O)c1` [compound I-27, ((2R,3S,4R,5R)-5-(6-(3-Aminophenyl)-9H-purin-9-yl)-3,4-dihydroxytetrahydrofuran-2-yl)methyl phosphate], the inhibition at 100 µM is 92.4%.
`Cc1sc2c(c1C)c(=O)[nH]c(=O)n2[C@@H]1O[C@H](COP(=O)(O)O)[C@@H](O)[C@H]1O` [compound I-19, ((2R,3S,4R,5R)-5-(5,6-Dimethyl-2,4-dioxo-3,4-dihydrothieno [2,3-d]pyrimidin-1 (2H)-yl)-3,4-dihydroxytetrahydrofuran-2-yl)methyl phosphate]: the inhibition at 100 µM was found to be 89.7%.
In the case of `O=c1[nH]c(=O)n([C@@H]2O[C@H](COP(=O)(O)O)[C@@H](O)[C@H]2O)c2ccsc12` [compound I-9, (2R,3S,4R,5R)-5-(2,4-Dioxo-3,4-dihydrothieno[3,2-d]pyrimidin-1(2H)-yl)-3,4-dihydroxytetrahydrofuran-2-yl)methyl phosphate], the inhibition at 100 µM turned out to be 70.9%.
Consider `O=P(O)(O)OC[C@H]1O[C@@H](n2cnc3c(-c4cccc(N5CCOCC5)c4)ncnc32)[C@H](O)[C@@H]1O` [compound I-28, ((2R,3S,4R,5R)-3,4-Dihydroxy-5-(6-(3-morpholinophenyl)-9H-purin-9-yl)tetrahydrofuran-2-yl)methyl phosphate], for which the inhibition at 100 µM came out at 77%.
On to `O=P(O)(O)OC[C@H]1O[C@@H](n2cnc3c(/C=C/c4ccccc4)ncnc32)[C@H](O)[C@@H]1O` [compound I-10, ((2R,3S,4R,5R)-3,4-dihydroxy-5-(6-((E)-styryl)-9H-purin-9-yl)tetrahydrofuran-2-yl)methyl phosphate], for which the inhibition at 100 µM came to 73.5%.
In the case of `O=c1[nH]c(=O)n([C@@H]2O[C@H](COP(=O)(O)O)[C@@H](O)[C@H]2O)c2cccc(Cl)c12` [compound I-8, ((2R,3S,4R,5R)-5-(5-Chloro-2,4-dioxo-3,4-dihydroquinazolin-1(2H)-yl)-3,4-dihydroxytetrahydrofuran-2-yl)methyl phosphate], the inhibition at 100 µM is 77.1%.
With `O=P(O)(O)OC[C@H]1O[C@@H](n2cnc3c(-c4cccc(OCc5ccccc5)c4)ncnc32)[C@H](O)[C@@H]1O` [compound I-29, ((2R,3S,4R,5R)-5-(6-(3-(Benzyloxy)phenyl)-9H-purin-9-yl)-3,4-dihydroxytetrahydrofuran-2-yl)methyl phosphate], the inhibition at 100 µM is 77.9%.
As to `O=P(O)(O)OC[C@H]1O[C@@H](n2cnc3c(-c4cccc(-c5ccccc5)c4)ncnc32)[C@H](O)[C@@H]1O` [compound I-26, ((2R,3S,4R,5R)-5-(6-(Biphenyl-3-yl)-9H-purin-9-yl)-3,4-dihydroxytetrahydrofuran-2-yl)methyl phosphate], the inhibition at 100 µM is 82.4%.
With `O=C(O)c1cccc(-c2ncnc3c2ncn3[C@@H]2O[C@H](COP(=O)(O)O)[C@@H](O)[C@H]2O)c1` [compound I-30, ((2R,3S,4R,5R)-5-(6-(3-(carboxy)phenyl)-9H-purin-9-yl)-3,4-dihydroxytetrahydrofuran-2-yl)methyl phosphate], the inhibition at 100 µM is 73.2%.
Take `O=c1[nH]c(=O)n([C@@H]2O[C@H](COP(=O)(O)O)[C@@H](O)[C@H]2O)c2ccc(Cl)cc12` [compound I-6, ((2R,3S,4R,5R)-5-(6-Chloro-2,4-dioxo-3,4-dihydroquinazolin-1(2H)-yl)-3,4-dihydroxytetrahydrofuran-2-yl)methyl phosphate]: the inhibition at 100 µM is 70%.
Still for that read-out and setting: with `Cc1cc(=O)[nH]c(=O)n1[C@@H]1O[C@H](COP(=O)(O)O)[C@@H](O)[C@H]1O` [compound I-34, ((2R,3S,4R,5R)-3,4-Dihydroxy-5-(6-methyl-2,4-dioxo-3,4-dihydropyrimidin-1(2H)-yl)tetrahydrofuran-2-yl)methyl phosphate] the figure was 31.8%.
Consider `CN(C)c1ncnc2c1nc(C#N)n2[C@@H]1O[C@H](COP(=O)(O)O)[C@@H](O)[C@H]1O` [compound I-12, ((2R,3S,4R,5R)-6-(8-cyano-6-(dimethylamino)-9H-purin-9-yl)-3,4-dihydroxytetrahydrofuran-2-yl)methyl phosphate], for which the inhibition at 100 µM stood at 74.2%.

The experiment is the same for the next values; noted with them: conclusion from Test Example 7.
As to `Nc1ncnc2c1nc(Br)n2[C@H]1C[C@H](O)[C@@H](COP(=O)(O)O)O1` [compound I-1, 8-bromo-2′-deoxyadenosine monophosphate], the “affinity for AGO2 (inhibition ratio) compared with adenosine monophosphate or uridine monophosphate” value was “higher affinity for AGO2”.

Still in this experiment, the particulars now being: read-out: inhibition rate (%) (100 μM AGO2-MID domain solutions).
With `N#Cc1cc(=O)[nH]c(=O)n1[C@@H]1O[C@H](COP(=O)(O)O)[C@@H](O)[C@H]1O` [compound I-17, ((2R,3S,4R,5R)-5-(6-Cyano-2,4-dioxo-3,4-dihydropyrimidin-1(2H)-yl)-3,4-dihydroxytetrahydrofuran-2-yl)methyl phosphate], the inhibition at 100 µM was found to be 86%.

The record behind these values is patent publication US10342819B2, “Oligonucleotide having non-natural nucleotide at 5′-terminal thereof” (Kyowa Hakko Kirin Co., Ltd., priority 2014, dated 2019).
